Patent publication US10793547B2, “Modulator of the cystic fibrosis transmembrane conductance regulator, pharmaceutical compositions, methods of treatment, and process for making the modulator” (Vertex Pharmaceuticals Incorporated, priority 2016, dated 2020)
Read-outs that look alike come from different tables or passages of the source.

How the values were obtained:
[1] = test system: F508del/F508del-HBE cells; assay: Ussing chamber chloride transport experiment; type: cell-based
Protocol: Ussing chamber experiments were performed on polarized airway epithelial cells expressing F508del to further characterize the F508del modulators identified in the optical assays. Non-CF and CF airway epithelia were isolated from bronchial tissue, cultured as previously described (Galietta, L. J. V., Lantero, S., Gazzolo, A., Sacco, O., Romano, L., Rossi, G. A., & Zegarra-Moran, O. (1998) In Vitro Cell. Dev. Biol. 34, 478-481), and plated onto Costar® Snapwell™ filters that were precoated with NIH3T3-conditioned media. After four days the apical media was removed and the cells were grown at an air liquid interface for >14 days prior to use. […] CF-HBE were isolated from patients homozygous for F508del or compound heterozygous for F508del with an different disease causing mutation on the other allele.
HBE grown on Costar® Snapwell™ cell culture inserts were mounted in an Ussing chamber (Physiologic Instruments, Inc., San Diego, Calif.), and the transepithelial resistance and short-circuit current in the presence of a basolateral to apical Cl^− gradient (ISC) were measured using a voltage-clamp system (Department of Bioengineering, University of Iowa, Iowa). Briefly, HBE were examined under voltage-clamp recording conditions (Vhold=0 mV) at 37° C. […]

Rat IV and PO PK studies = type: in vivo, male Sprague-Dawley rats
Protocol: C. Experimental Protocol for Rat IV and PO PK Studies
The tested compound was administered to male Sprague-Dawley rats as a single nominal intravenous dose of 3.0 mg/kg as a solution in 10% NMP, 10% solution, 15% EtOH, 35% PEG400 and 30% D5W. The tested compound was also administered to male Sprague-Dawley rats at single nominal oral dose of 3 mg/kg as a solution in 5% NMP, 30% PEG400, 10% TPGS, 5% PVP-K30 at 5 mL/kg dose volume. Analyses of plasma and dose preparations were performed using LC/MS/MS.
Plasma concentration-time profiles of the tested compound in Sprague-Dawley rats at scheduled (nominal) sampling times were analyzed by noncompartmental pharmacokinetic methods using PK function within Watson LIMS software, Version 7.4.2 (Thermo Scientific Inc, Waltham, Mass.). AUC values were calculated using the linear trapezoidal rule.

human PXR = target: T1, human PXR (Homo sapiens, UniProt O75469); assay: PXR assay: PXR mediated CYP3A4 induction in DPX-2 cell line; type: cell-based; conditions: DPX-2 cells
T1 construct: host or cells: DPX-2 cell line (derived from HepG2)
T1 sequence (O75469 1-434): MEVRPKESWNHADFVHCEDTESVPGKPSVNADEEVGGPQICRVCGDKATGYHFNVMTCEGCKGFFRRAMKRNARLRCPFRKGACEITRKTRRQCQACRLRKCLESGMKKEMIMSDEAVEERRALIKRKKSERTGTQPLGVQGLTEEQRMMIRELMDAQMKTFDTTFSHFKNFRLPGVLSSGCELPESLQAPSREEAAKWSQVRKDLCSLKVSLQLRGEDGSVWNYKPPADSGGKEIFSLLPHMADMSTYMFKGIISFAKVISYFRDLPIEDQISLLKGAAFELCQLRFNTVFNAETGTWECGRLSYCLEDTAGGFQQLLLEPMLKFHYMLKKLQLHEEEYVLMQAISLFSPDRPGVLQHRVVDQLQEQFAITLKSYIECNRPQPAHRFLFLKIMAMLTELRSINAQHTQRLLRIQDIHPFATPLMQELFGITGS
In short: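 HepG2-derived DPX-2 cells stably carrying human PXR and a CYP3A4 promoter/enhancer–luciferase reporter; 11 doses from 0.1 to 60 μM for 48 h, rifampicin as positive control. Viability read by fluorescence, then luciferase luminescence; max fold induction over vehicle and EC50 reported.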

[2] = MDCK-Wild Type permeability, 96 well + 0.1% BSA; type: in vitro ADME; conditions: dog, MDCK, A-B direction, read-out: MDCK-Wild Type-Permeability 96 well + 0.1% BSA Papp compound (A-B)
[3] = Metabolism of Compound 1 in vitro and in vivo
F508del-CFTR = target: T2, F508del-CFTR (Homo sapiens, UniProt P13569, DEL508-508); assay: Membrane potential optical (FLIPR) assay for F508del-CFTR modulators in NIH 3T3 cells; type: cell-based; conditions: for EC50: assay A1
T2 construct: expressed in transfected cells
T2 sequence (P13569 with tags, fused parts or gaps DEL508-508): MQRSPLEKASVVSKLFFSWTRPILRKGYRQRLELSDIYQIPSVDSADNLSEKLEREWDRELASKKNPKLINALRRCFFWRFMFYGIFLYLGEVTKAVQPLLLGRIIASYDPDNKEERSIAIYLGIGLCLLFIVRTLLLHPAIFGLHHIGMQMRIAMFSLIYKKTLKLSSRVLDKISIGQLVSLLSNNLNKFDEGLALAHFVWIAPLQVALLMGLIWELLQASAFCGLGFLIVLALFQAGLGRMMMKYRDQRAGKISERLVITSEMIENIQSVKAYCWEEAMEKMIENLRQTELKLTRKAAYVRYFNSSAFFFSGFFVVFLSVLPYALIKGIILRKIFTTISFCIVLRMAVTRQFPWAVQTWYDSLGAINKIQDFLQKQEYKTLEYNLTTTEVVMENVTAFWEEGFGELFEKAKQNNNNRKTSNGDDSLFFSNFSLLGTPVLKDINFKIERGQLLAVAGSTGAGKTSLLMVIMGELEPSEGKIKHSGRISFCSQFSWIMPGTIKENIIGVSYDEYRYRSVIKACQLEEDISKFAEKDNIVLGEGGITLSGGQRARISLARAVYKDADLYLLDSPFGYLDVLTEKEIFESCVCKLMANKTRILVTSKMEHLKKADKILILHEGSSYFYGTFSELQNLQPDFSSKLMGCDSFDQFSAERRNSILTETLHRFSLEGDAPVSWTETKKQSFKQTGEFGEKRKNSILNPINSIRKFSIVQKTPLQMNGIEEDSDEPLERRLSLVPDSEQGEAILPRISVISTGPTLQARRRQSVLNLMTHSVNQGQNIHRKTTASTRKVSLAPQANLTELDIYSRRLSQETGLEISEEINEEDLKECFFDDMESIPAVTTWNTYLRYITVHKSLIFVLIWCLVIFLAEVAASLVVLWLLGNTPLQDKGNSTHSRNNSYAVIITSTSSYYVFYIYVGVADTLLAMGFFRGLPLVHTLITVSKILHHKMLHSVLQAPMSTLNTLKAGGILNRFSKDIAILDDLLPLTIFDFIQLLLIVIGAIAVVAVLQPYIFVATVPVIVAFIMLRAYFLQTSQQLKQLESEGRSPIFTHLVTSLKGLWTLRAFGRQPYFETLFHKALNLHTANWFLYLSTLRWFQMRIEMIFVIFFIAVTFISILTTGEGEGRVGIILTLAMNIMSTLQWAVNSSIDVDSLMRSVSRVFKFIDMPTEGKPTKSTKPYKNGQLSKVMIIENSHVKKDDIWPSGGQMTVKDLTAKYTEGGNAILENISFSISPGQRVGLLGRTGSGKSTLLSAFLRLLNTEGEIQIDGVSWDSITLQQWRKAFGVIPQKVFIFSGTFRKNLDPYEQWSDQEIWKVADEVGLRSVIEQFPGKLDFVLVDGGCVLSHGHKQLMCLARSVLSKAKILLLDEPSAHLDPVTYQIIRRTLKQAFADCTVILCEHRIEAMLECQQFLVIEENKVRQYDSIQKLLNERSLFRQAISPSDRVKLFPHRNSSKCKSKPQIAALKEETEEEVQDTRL
In short: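 NIH3T3 mouse fibroblasts stably expressing F508del, seeded on matrigel and cultured 18-24 h at 37 °C; for correction, cells were cultured with or without compound for 18-24 h. Cells were loaded with voltage-sensing dye, then compound was added in one step with a chloride gradient (chloride replaced by gluconate). Membrane potential was read by fluorescence.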

Rat hepatocytes = assay: Hepatocyte clearance, rat hepatocytes; type: in vitro ADME; conditions: percent unchanged
MDCK-Wild Type = MDCK-Wild Type permeability, 96 well + 0.1% BSA; type: in vitro ADME; conditions: A-B direction
[4] = NIH 3T3 cells expressing F508del, read-out: CFTRdF508 Cor 3T3 FLIPR 384 CFTRdF508 MP 3T3 770 EC50

RAT PLASMA-RAW IV-bolus CL_drg (Rat IV and PO PK studies; IV bolus, nominal 3.0 mg/kg) | RAT PLASMA-RAW PO % F_drg (Rat IV and PO PK studies; PO, nominal 3 mg/kg) | AUC(0-inf) (Rat IV and PO PK studies; male, Sprague-Dawley, plasma, PO, nominal 3 mg/kg, read-out: RAT PLASMA-RAW PO AUC (0-inf)_drg) | CYP3A4 Induction-PXR human PXR internal Max % Activity (human PXR) | Papp A→B [2] | Emax (F508del-CFTR; NIH3T3, assay A1, read-out: % Efficacy relative to Compound II) | EC50 (F508del-CFTR; [4]) | EC50 (F508del-CFTR; read-out: EC50) | Hepatocyte clearance-Rat Rat hepatocytes CL pct_unchanged (Rat hepatocytes) | MDCK-Wild Type-Permeability 96 well + 0.1% BSA Papp compound (A-B) (MDCK-Wild Type) | metabolite identity [3] | SMILES | effect on chloride transport in combination with Compound II [1] | chloride transport ([1]; Compound 1 alone) | metabolism ([3]; in vitro and in vivo)
1.6 mL/min/kg | 83% | 23500 ng·h/mL | 2% | 4.5 ×10⁻⁶ cm/s | ≥ 100% | 70 nM | < 3000 nM | 66% |  |  | Cc1nn(C)cc1S(=O)(=O)NC(=O)c1ccc(-n2ccc(OCC(C)(C)C(F)(F)F)n2)nc1N1C[C@@H](C)CC1(C)C [Compound 1, N-(1,3-dimethylpyrazol-4-yl)sulfonyl-6-[3-(3,3,3-trifluoro-2,2-dimethyl-propoxy)pyrazol-1-yl]-2-[(4S)-2,2,4-trimethylpyrrolidin-1-yl]pyridine-3-carboxamide] | additive to the effect of Compound II | enhanced chloride transport | metabolized both in vitro and in vivo, mostly by oxidative metabolism
 |  |  | 21% |  |  | 1400 nM |  | 54% | 5.5 10E-6 cm/s |  | Cc1nn(C)cc1S(=O)(=O)NC(=O)c1ccc(-n2ccc(OC3CC3C(F)(F)F)n2)nc1N1C[C@@H](C)CC1(C)C (stereo partly drawn) [Compound 35, N-(1,3-dimethylpyrazol-4-yl)sulfonyl-6-[3-[2-(trifluoromethyl)cyclopropoxy]pyrazol-1-yl]-2-[(4S)-2,2,4-trimethylpyrrolidin-1-yl]pyridine-3-carboxamide] |  |  | 
 |  |  | 4% | 0.6 ×10⁻⁶ cm/s |  | 950 nM |  | 39% |  | metabolites of Compound 1 | Cc1nn(C)cc1S(=O)(=O)NC(=O)c1ccc(-n2ccc(OCC(C)(C)C(F)(F)F)n2)nc1N1CC(CO)CC1(C)C (stereo not drawn) [Compound 30, N-(1,3-dimethylpyrazol-4-yl)sulfonyl-2-[4-(hydroxymethyl)-2,2-dimethyl-pyrrolidin-1-yl]-6-[3-(3,3,3-trifluoro-2,2-dimethyl-propoxy)pyrazol-1-yl]pyridine-3-carboxamide] |  |  | 
